Reference: ChEMBL document CHEMBL1201862, “PubChem BioAssay data set” (2004)
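Test compounds were applied to cells in 96-well plates for 48 hours at 5 doses. At the GI50, growth is halved.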 Calls of active or inactive are those of the source. No stated cut-off is given here; in the data, active = GI50 up to about 1.1 µM and inactive = higher.

Tests used:
Test in all cases: NCI tumour cell line growth inhibition, 48 h
[1] = system: U-251
[2] = system: NCI-H460
[3] = system: EKVX
[4] = system: HL-60
[5] = system: MDA-N
[6] = system: KM12
[7] = system: SF-268
[8] = system: CCRF-CEM
[9] = system: SW-620
[10] = system: SK-MEL-28
[11] = system: BT-549
[12] = system: SNB-75
[13] = system: TK-10
[14] = system: CAKI-1
[15] = system: MOLT-4
[16] = system: OVCAR-8
[17] = system: HOP-92
[18] = system: NCI-H226
[19] = system: HCC 2998
[20] = system: MDA-MB-435
[21] = system: RPMI-8226
[22] = system: NCI-H23
[23] = system: MDA-MB-231
[24] = system: NCI/ADR-RES
[25] = system: UACC-62
[26] = system: UACC-257
[27] = system: SNB-19
[28] = system: A498
[29] = system: K562
[30] = system: SN12C
[31] = system: UO-31
[32] = system: OVCAR-4
[33] = system: ACHN
[34] = system: HCT-15
[35] = system: SR
[36] = system: SF-539
[37] = system: 786-0
[38] = system: Hs-578T
[39] = system: DU-145
[40] = system: NCI-H522
[41] = system: MCF7
[42] = system: SF-295
[43] = system: PC-3
[44] = system: HT-29
[45] = system: HCT-116
[46] = system: OVCAR-5
[47] = system: LOX IMVI
[48] = system: COLO 205
[49] = system: IGROV-1
[50] = system: OVCAR-3
[51] = system: Malme-3M
[52] = system: A549
[53] = system: RXF 393
[54] = system: SK-MEL-5
[55] = system: HOP-62
[56] = system: M14
[57] = system: T47D
[58] = system: SK-MEL-2
[59] = system: SK-OV-3

With `CC1(C)C2CCC(CN)(C2)C1O` (stereo unspecified) the GI50 [1] was > 100 µM (inactive), the GI50 [2] was > 100 µM (inactive) and the GI50 [3] was > 100 µM (inactive). The GI50 [4] was > 100 µM (inactive), the GI50 [5] was > 100 µM (inactive) and the GI50 [6] was > 100 µM (inactive). The GI50 [7] was > 100 µM (inactive), the GI50 [8] was > 100 µM (inactive) and the GI50 [9] was > 100 µM (inactive). The GI50 [10] was > 100 µM (inactive), the GI50 [11] was > 100 µM (inactive) and the GI50 [12] was > 100 µM (inactive). For the same compound, the GI50 [13] was > 100 µM (inactive), the GI50 [14] was > 100 µM (inactive) and the GI50 [15] was > 100 µM (inactive). For the same compound, the GI50 [16] was > 100 µM (inactive), the GI50 [17] was > 100 µM (inactive) and the GI50 [18] was > 100 µM (inactive). The GI50 [19] was > 100 µM (inactive), the GI50 [20] was 65.6 µM (inactive) and the GI50 [21] was > 100 µM (inactive). For the same compound, the GI50 [22] was > 100 µM (inactive), the GI50 [23] was > 100 µM (inactive) and the GI50 [24] was 80.2 µM (inactive). For the same compound, the GI50 [25] was > 100 µM (inactive), the GI50 [26] was > 100 µM (inactive) and the GI50 [27] was > 100 µM (inactive). The GI50 [28] was > 100 µM (inactive), the GI50 [29] was > 100 µM (inactive) and the GI50 [30] was > 100 µM (inactive). The GI50 [31] was > 100 µM (inactive), the GI50 [32] was > 100 µM (inactive) and the GI50 [33] was > 100 µM (inactive). The GI50 [34] was > 100 µM and the GI50 [35] was > 100 µM (inactive).
For `CN(C)c1ccc(C2=C([O-])c3cc(-[n+]4ccccc4)ccc3C2=O)cc1`, the GI50 [1] was > 100 µM (inactive), the GI50 [36] was > 100 µM (inactive) and the GI50 [2] was > 100 µM (inactive). For the same compound, the GI50 [3] was > 100 µM (inactive), the GI50 [37] was > 100 µM (inactive) and the GI50 [4] was > 100 µM (inactive). For the same compound, the GI50 [38] was > 100 µM (inactive), the GI50 [39] was > 100 µM (inactive) and the GI50 [5] was > 100 µM (inactive). The GI50 [40] was > 100 µM (inactive), the GI50 [41] was > 100 µM (inactive) and the GI50 [42] was > 100 µM (inactive). For the same compound, the GI50 [6] was > 100 µM (inactive), the GI50 [7] was > 100 µM (inactive) and the GI50 [43] was > 100 µM (inactive). For the same compound, the GI50 [44] was > 100 µM (inactive), the GI50 [8] was > 100 µM (inactive) and the GI50 [9] was > 100 µM (inactive). For the same compound, the GI50 [10] was > 100 µM (inactive), the GI50 [45] was > 100 µM (inactive) and the GI50 [46] was > 100 µM (inactive). For the same compound, the GI50 [11] was > 100 µM (inactive), the GI50 [12] was > 100 µM (inactive) and the GI50 [13] was > 100 µM (inactive). For the same compound, the GI50 [14] was > 100 µM (inactive), the GI50 [47] was > 100 µM (inactive) and the GI50 [15] was > 100 µM (inactive). The GI50 [48] was > 100 µM (inactive), the GI50 [16] was > 100 µM (inactive) and the GI50 [17] was > 100 µM (inactive). For the same compound, the GI50 [18] was > 100 µM (inactive), the GI50 [49] was > 100 µM (inactive) and the GI50 [19] was > 100 µM (inactive). The GI50 [20] was > 100 µM (inactive), the GI50 [21] was > 100 µM (inactive) and the GI50 [22] was > 100 µM (inactive). The GI50 [23] was > 100 µM (inactive), the GI50 [24] was > 100 µM (inactive) and the GI50 [26] was > 100 µM (inactive). For the same compound, the GI50 [27] was > 100 µM (inactive), the GI50 [50] was > 100 µM (inactive) and the GI50 [51] was > 100 µM (inactive). The GI50 [28] was > 100 µM (inactive), the GI50 [29] was > 100 µM (inactive) and the GI50 [30] was > 100 µM (inactive). The GI50 [52] was > 100 µM (inactive), the GI50 [31] was > 100 µM (inactive) and the GI50 [53] was > 100 µM (inactive). The GI50 [54] was > 100 µM (inactive), the GI50 [32] was > 100 µM (inactive) and the GI50 [55] was > 100 µM (inactive). For the same compound, the GI50 [33] was > 100 µM (inactive), the GI50 [34] was > 100 µM and the GI50 [35] was > 100 µM (inactive).
With `c1ccc([P+](CCN2Cc3ccccc3C2)(c2ccccc2)c2ccccc2)cc1` the GI50 [1] was 2.19 µM (inactive), the GI50 [36] was 6.15 µM (inactive) and the GI50 [2] was 5.79 µM (inactive). The GI50 [56] was 5.36 µM (inactive), the GI50 [3] was 3.84 µM (inactive) and the GI50 [37] was 8.17 µM (inactive). The GI50 [4] was 2.77 µM (inactive), the GI50 [38] was 12.5 µM (inactive) and the GI50 [39] was 5.87 µM (inactive). For the same compound, the GI50 [57] was 2.4 µM (inactive), the GI50 [5] was 3.27 µM (inactive) and the GI50 [40] was 2.73 µM (inactive). For the same compound, the GI50 [41] was 3.59 µM (inactive), the GI50 [42] was 6.92 µM (inactive) and the GI50 [6] was 3.23 µM (inactive). The GI50 [7] was 5.77 µM (inactive), the GI50 [43] was 4.8 µM (inactive) and the GI50 [44] was 3.52 µM (inactive). The GI50 [8] was 2.64 µM (inactive), the GI50 [9] was 4.22 µM (inactive) and the GI50 [10] was 2.74 µM (inactive). For the same compound, the GI50 [45] was 3 µM (inactive), the GI50 [46] was 16.6 µM (inactive) and the GI50 [12] was 2.12 µM (inactive). For the same compound, the GI50 [13] was 10.4 µM (inactive), the GI50 [14] was 38.3 µM (inactive) and the GI50 [47] was 3.84 µM (inactive). The GI50 [15] was 6.44 µM (inactive), the GI50 [48] was 1.56 µM (inactive) and the GI50 [16] was 2.32 µM (inactive). For the same compound, the GI50 [17] was 1.08 µM (active), the GI50 [18] was 3.84 µM (inactive) and the GI50 [49] was 0.368 µM (active). The GI50 [19] was 2.94 µM (inactive), the GI50 [58] was 2.27 µM (inactive) and the GI50 [20] was 3.58 µM (inactive). The GI50 [21] was 0.051 µM (active), the GI50 [22] was 5.46 µM (inactive) and the GI50 [23] was 3.94 µM (inactive). The GI50 [24] was 69.5 µM (inactive), the GI50 [25] was 2.85 µM (inactive) and the GI50 [26] was 2.35 µM (inactive). The GI50 [27] was 6.7 µM (inactive), the GI50 [50] was 3.13 µM (inactive) and the GI50 [51] was 8.59 µM (inactive). The GI50 [28] was 18 µM (inactive), the GI50 [29] was 2.79 µM (inactive) and the GI50 [30] was 4.56 µM (inactive). For the same compound, the GI50 [52] was 4.99 µM (inactive), the GI50 [31] was 12.1 µM (inactive) and the GI50 [59] was 20.7 µM (inactive). For the same compound, the GI50 [53] was 5.35 µM (inactive), the GI50 [54] was 2.04 µM (inactive) and the GI50 [55] was 8.67 µM (inactive). The GI50 [33] was 5.69 µM (inactive), the GI50 [34] was 12.7 µM and the GI50 [35] was 4.33 µM (inactive).
